Like-named read-outs stand apart in the source and are kept apart here. Starred links: 1 amine or outer side, 2 acyl side, 3 side chain; linkers in the order of their positions; H or OH if unused. Positions of bridges follow the written chain, without caps; N, C: chain ends. Non-standard residues stand in square brackets, D forms with d. Residues, ends and D or L forms follow the SMILES beside them. Chains are numbered I, II in the order given. Hexamethylenediamine = C(CCCN[*:2])CCN[*:1]; Dip = N[C@H](C(=O)O)C(c1ccccc1)c1ccccc1; Chg = N[C@H](C(=O)O)C1CCCCC1; NMeA = CN[C@@H](C)C(=O)O
Key:
Type in all cases: cell-based
[1] = test system: 5′- and 3′-UTRs of human utrophin; test: Screening assay: C2C12 stable reporter line, CMV-driven luciferase flanked by utrophin 5′ and 3′ UTRs; details: for Upper-lower limits scoren: difference between upper and lower boundaries of the fitted dose-response screening curve; for Fold diff: fold difference between the EC50s of screening and counterscreening
Description: (§1) The construct for the HTS assay was generated by cloning the 5′- and 3′-UTRs of human utrophin into pGL4:50-hygro (Promega, Madison, Wis.) at the 5′ and 3′ of the luciferase coding sequence and has been described previously by Moorwood. […] For the counterscreening assay, the pGL4:50-hygro plasmid was used alone. Low passage C2C12 cells obtained from ATCC were transfected with either constructs, stably selected with 500 μg/mL hygromycin and subcloned using two rounds of serial dilutions to isolate single cell-derived colonies in a 96 wells plate format. […] The selected clones were cultured in presence of 100 μg/mL hygromycin B and were transferred to the HTS Facility at the University of Pennsylvania for implementation into a 384-wells format suitable for HTS.
(§2) The construct for generating the screening C2C12 cell line carrying the 5′ and 3′UTR of the human utrophin gene is described by Moorwood. […] Some compounds could increase light emission independently from the 5′ and 3′UTR regions, i.e., by activating the CMV promoter or increasing overall mRNA synthesis. Therefore, in order to distinguish such compounds, a counterscreening cell line stably expressing only the CMV-driven luciferase gene was generated (FIG. 1A). To determine optimal conditions for the implementation in a 384-wells high-throughput format, evaluated were DMSO tolerance, optimal cell density and incubation time (FIG. 5A-5C).
(§3) A first criterion for evaluating the performance of the selected hits was whether their activity was dose-dependent. After performing a dose-response analysis (5 nM to 10 μM) of each hit in the screening cell line, a clustering approach was applied (complete linkage with Euclidean distance measurement) to highlight similarities between compounds profiles. […] By modeling each dose-response trace with a 4-parameter logistic model applied to the Z— score values (FIG. 2B), the EC50 of each molecule was calculated.
(§4) Cells were allowed to attach overnight at 37° C., 5% CO2 in a humidified chamber. […] Compounds were added to a final concentration of 1 μM and 100 nM in 0.2% DMSO. Columns 1 and 23 were treated with 0.2% DMSO (negative control). Columns 2 and 24 were treated with 100 nM Panobinostat (positive control). Cells were incubated for 24 hours at 37° C., 5% CO2. […] Luminescence was measured on an EnVisionXcite Multilabel Plate Reader (PerkinElmer), using ultrasensitive luminescence measurement technology.

[2] = test system: CMV-driven luciferase gene; test: Counterscreening assay: C2C12 line stably expressing only the CMV-driven luciferase gene; details: for luciferase activity in the counterscreening assay: dose-response 5 nM to 10 μM, FIG. 6
Description: as §1, §2, §3, §4

[3] = test system: utrophin protein in C2C12 cells; test: Utrophin western blot in C2C12 cells (endogenous protein expression); details: for Utrophin protein levels, fold increase: 1 μM, 24 hours, normalized to tubulin, vs 0.1% DMSO control; for utrophin protein levels in a separate assay (data not shown): hits with H2LPS equal to 0
Description: The 10 highest scoring hits were selected from this subset for performing in vitro validation. C2C12 cells were treated with 1 μM concentrations of the selected hits for 24 hours, followed by western blot evaluation of utrophin levels as an orthogonal assay for endogenous protein expression. […] Panobinostat, an FDA-approved non-selective HDAC inhibitor for cancer treatment, increased utrophin levels by 1.9-fold. […] AR-42 (S2244), another HDAC inhibitor with proven preclinical efficacy in contrasting cancer-induced cachexia, increased utrophin by 2.3-fold and had the second highest H2LPS. Consistent with the calculated HPS, the highest scoring hit, TSA (S1045), had also the highest magnitude of protein upregulation (3.9-fold) followed by PCI-24781 (S1090; 3.7-fold). Importantly, high H2LPS was generally correlated with confirmation in WB assays (FIG. 2E).
Total RNA was extracted from TA muscle samples with RNAeasy kit (Qiagen, USA) and reverse transcribed with random hexamers. qPCR was performed using Taqman probes for Utrophin (Assay ID Mm01168846_ml) and β-actin. Muscle tissue samples were lysed with TNEC buffer (50 mM Tris-HCl, pH 8.0; 150 mMNaCl; 1% NP40; 2 mM EDTA) buffer containing complete protease inhibitor cocktail (Roche, Basel, Switzerland). C2C12 cells were treated for 24 h with 1 μM concentrations of compounds from a fresh batch (3 wells for each compound), and cell samples were lysed with RIPA buffer with protease inhibitor cocktail. The experiment was repeated three independent times. 50-75 μg of total proteins from muscle tissues, or 4 μg of cell protein extracts, were resolved on a 3-8% Tris-Acetate gradient gel (NuPage; Invitrogen), transferred to PDVF or nitrocellulose membranes and mouse monoclonal anti-utrophin antibody MANCHO3 clone 8A4 (developed by Glenn E. Morris and obtained from the Developmental Studies Hybridoma Bank, Iowa) or a custom-made anti-UtrophinA rabbit polyclonal antibody (muscle tissue samples) generated and described previously by Chakkalakal et al., Nucleic Acids Res. 36, 826-838 (2008), which is incorporated herein by reference in its entirety.
TSA is a broad-spectrum HDAC inhibitor. […] To further validate in vitro the dose-dependent capacity of TSA to upregulate utrophin protein, C2C12 cells were treated for 24 hours with increasing concentrations of TSA (from 1 nM to 10 μM) (FIG. 3B). Consistent with the single-dose western blot validation experiments, utrophin protein levels were increased 4.3 times by 1 μM TSA. […] Some cytotoxicity was evident for TSA concentrations higher than 1 μM.

[4] = C2C12, 4-parameter logistic fit of Z-scores, 24 h, no unit in table (0.013 = 13 nM), read-out: EC50 screen
[5] = C2C12, read-out: EC50 score (1 to 4)
[6] = 4-parameter logistic fit of Z-scores, 24 h, no unit in table (0.013 = 13 nM), read-out: EC50 screen

Compound | EC50 [1, 4] | EC50 [1, 5] | Upper-lower limits scoren [1] | Fold diff [1] | also measured
O=C(/C=C/c1cccc(S(=O)(=O)Nc2ccccc2)c1)NO [Belinostat] | 342 nM | 100 to 1000 nM | 43.41 | High | 
CN[C@@H](C)C(=O)N[C@H](C(=O)N1CCC[C@H]1C(=O)N[C@H](C(=O)NCCCCCCNC(=O)[C@@H](NC(=O)[C@@H]1CCCN1C(=O)[C@@H](NC(=O)[C@H](C)NC)C1CCCCC1)C(c1ccccc1)c1ccccc1)C(c1ccccc1)c1ccccc1)C1CCCCC1 [BV-6] (I: H-[NMeA][Chg]P[Dip] / II: H-[NMeA][Chg]P[Dip]; linker I:C-II:C via Hexamethylenediamine) |  |  | 7.00 | High | EC50 [1, 6]: 99 nM
COc1ccc(-c2nc(N3CCOCC3)c3sc(CN(C)c4ncc(C(=O)NO)cn4)cc3n2)cn1 [CUDC-907] |  | < 50 nM |  |  | luciferase activity in the counterscreening assay [2]: significant luciferase activity
CN(C)c1ccc(C(=O)NCCCCCCC(=O)NO)cc1 [M344] |  |  | 74.15 | 2.54 | EC50 [1, 6]: 3220 nM
CCN(CC)Cc1ccc2cc(COC(=O)Nc3ccc(C(=O)NO)cc3)ccc2c1 [Givinostat] | 269 nM | 100 to 1000 nM | 46.59 | 18.69 | Utrophin protein levels, fold increase [3]: 2.2 fold
Cc1cc(C)cc(C(=O)NOCCCCCC(=O)NO)c1 [LMK-235] | 683 nM | 100 to 1000 nM | 43.40 | High | 
Cn1cc(CNCC2CCN(c3ncc(C(=O)NO)cn3)CC2)c2ccccc21 [Quisinostat] |  |  |  |  | utrophin protein levels in a separate assay (data not shown) [3]: failed to increase utrophin protein levels
CCCCc1nc2cc(/C=C/C(=O)NO)ccc2n1CCN(CC)CC [Pracinostat] | 558 nM | 100 to 1000 nM | 56.37 | 59.25 | 
CC(C)Oc1ccc2c(=O)c(-c3ccccc3)coc2c1 [ipriflavone] |  | < 50 nM |  |  | 
Abexinostat [PCI-24781] |  |  | 44.18 | 33.72 | EC50 [1, 6]: 138 nM; Utrophin protein levels, fold increase [3]: 3.7 fold
O=C(/C=C/c1ccc(CN(CCO)CCc2c[nH]c3ccccc23)cc1)NO [LAQ824, Dacinostat] |  |  |  |  | utrophin protein levels in a separate assay (data not shown) [3]: failed to increase utrophin protein levels
Panobinostat |  |  | 22.06 | 9.21 | EC50 [1, 6]: 13 nM; increase of signal activity over basal signal, primary screening ([1]; FIG. 8, Panobinostat-treated vs untreated stable C2C12 cells): 4-6 fold; signal (S), primary screening ([1]; FIG. 8, basal about 20,000 RLUs): about 100,000 RLUs; activity in library screen (threshold 22.07% NPAc) ([1]; screened at 0.1 μM and 1 μM, 24 h): active at both concentrations; increase over the basal signal, counterscreening ([2]; FIG. 8, Panobinostat-treated vs untreated): 100 fold; signal (S), counterscreening ([2]; FIG. 8, basal about 400 RLUs): 25-40,000 RLUs; luciferase activity in the counterscreening assay [2]: significant luciferase activity; Utrophin protein levels, fold increase [3]: 1.9 fold
CC(C)[C@H](C(=O)Nc1ccc(C(=O)NO)cc1)c1ccccc1 [AR-42] | 369 nM | 100 to 1000 nM | 59.94 | 14.72 | Utrophin protein levels, fold increase [3]: 2.3 fold
O=C1Nc2cc(Br)ccc2/C1=C1/Nc2ccccc2/C1=N\O [BIO] |  |  | 12 |  | 
CC(=O)O/N=C1/C(=C2/C(=O)Nc3cc(Br)ccc32)Nc2ccccc21 [BIO-acetoxime] |  |  | 13.04 | 0.65 | EC50 [1, 6]: 330 nM
O=C(CCCCCN1C(=O)c2cccc3cccc(c23)C1=O)NO [Scriptaid] | 2440 nM | > 1000 nM | 62.01 | High | 
C#Cc1cccc(Nc2ncnc3cc(OC)c(OCCCCCCC(=O)NO)cc23)c1 [CUDC-101] | 1990 nM | > 1000 nM | 34.34 | High | 
Cc1cc(O)c(-c2ccc([C@@H](C)CN)cc2)c2c1[nH]c(=O)c1sccc12.Cl [OTS514 hydrochloride] |  |  |  |  | utrophin protein levels in a separate assay (data not shown) [3]: failed to increase utrophin protein levels
O=C1Cc2c([nH]c3ccc(Br)cc23)-c2ccccc2N1 [Kenpaullone] | 34 nM | < 50 nM | 12.92 | 6.97 | 

— patent publication US20230076977A1, “UTROPHIN UPREGULATION COMPOUNDS FOR DUCHENNE MUSCULAR DYSTROPHY THERAPY” (THE TRUSTEES OF THE UNIVERSITY OF PENNSYLVANIA, priority 2020, published 2023)
